Results as given in patent US5843941A, “Ras farnesyl transferase inhibitors” (Genentech, Inc., priority 1994, dated 1998).

Legend:
[1] = tested on: farnesylated proteins F1, F2 and F3 in Met18b-2 cells; assay: Inhibition of intracellular farnesylation in intact Met18b-2 cells, Triton-soluble proteins F1, F2, F3; format: cell-based, Chinese hamster
[2] = tested on: low molecular weight GTP binding proteins (SMG) in Met18b-2 cells; assay: [3H]mevalonate labeling of low molecular weight GTP binding proteins (SMG) in Met18b-2 cells; format: cell-based, Chinese hamster
Excerpt: To study farnesylation in intact cells we used Met18b-2 cells, a line of Chinese hamster ovary (CHO) cells that takes up [3H]mevalonate efficiently (see Faust, J., and Krieger, M. J. Biol. Chem. 262, 1966 (1987)) owing to the production of a mevalonate transport protein (see Kim, C. M., Goldstein, J. L., Brown, M. S. J. Biol. Chem. 267, 23113 (1992)). The [3H]mevalonate is converted by the cells into [3H]farnesyl pyrophosphate and [3H]geranylgeranyl pyrophosphate, which are then attached to proteins (Kim, C. M., Goldstein, J. L., Brown, M. S. J. Biol. Chem. 267, 23113 (1992)). In the assay, stock cultures of Met18b-2 cells were seeded at a density of 3-105 cells per 60 mm dish in 3 ml of medium A (Dulbecco's modified Eagle medium/Ham's F12 medium (1:1, v/v) containing 100 U/ml penicillin and 100 μg/ml streptomycin) supplemented with 5% (v/v) fetal calf serum (FCS). On day 3, each monolayer was refed with 1 ml medium A supplemented with 1% FCS (dialyzed against 0.15 M NaCl). At this point the cells were treated with 100 μM compactin (see Brown, M. S., Faust, J. R., Goldstein, J. L., Kaneko, I., and Endo, A. J. Biol. Chem. 253, 1121 (1978)) which blocks the synthesis of unlabeled mevalonate within the cells. Each compound was dissolved at 25 mM in DMSO/10 mM DTT immediately before use and 10 μl of this solution added directly. After 2 hr incubation at 37° C., each monolayer received 100 μCi [3H]mevalonate (60 Ci/mmol, American Radiolabeled Chemicals, Inc.) added in 100 μl of the medium A, and the incubation continued for 4 hr. The cells were harvested by rinsing three times with 3 ml of 50 mM Tris-HCl/0.15 M NaCl (pH 7.5). 300 μl of lysis buffer (0.5X Dulbecco's phosphate-buffered saline containing 1% Triton X-100, 5 μg/ml leupeptin, 5 μg/ml pepstatin, 0.5 mM phenylmethylsulfonyl fluoride, and 0.05 U/ml aprotinin) was added to each monolayer. After incubation on ice for 5 mon, the lysates were centrifuged 30 sec in a microfuge at 12,000 g. […] Protein concentrations were determined using the BCA protein assay reagent (Pierce) according to the manufacturer's instructions. […]

MDA-7 cells = assay: Growth inhibition of human tumor line MDA-7; format: cell-based; conditions: MDA-7, breast, not ras transformed, read-out: % growth inhib.
Protocol: (§1) To examine the effects of farnesyltransferase inhibition on cell growth, three cell lines (ras-transformed rat-1, src-transformed rat-1, and parental rat-1 cells) were seeded (see FIG. 7) at low density and allowed to grow for 10 days in the absence or presence of increasing concentrations of BZA-5B (compound 37). See Example 128 for description of cells. On day 0, cells were plated in monolayer culture at 2×10^3 cells per well (24-well plates) in 1 ml DMEM supplemented with 10% fetal calf serum, 100 U/ml penicillin, 100 μg/ml streptomycin, 0.5 mM DTT, 0.025% DMSO, and the indicated concentration of BZA-5B (compound 37). On days 3 and 7, cells were washed and refed with the same medium. At the time indicated in FIG. 7, cells were harvested by trypsinization and counted in a Coulter counter. Panels A, C, E show the growth rate of each cell line in the absence of inhibitor. Panels B, D, F show the inhibition of growth as a function of concentration of BZA-5B at each time point. […]
(§2) To examine the effects of farnesyltransferase inhibition on the growth of human tumor cell lines, several such lines were treated with 25 μM BZA-5B (compound 37B) using a procedure similar to that described in Example 129 above. Cells were refed with fresh media at days 3 and 6 containing the inhibitor, and were harvested and counted as described above. […]

CALU-3 cells = assay: Growth inhibition of human tumor line CALU-3; format: cell-based; conditions: CALU-3, lung, ras transformed, read-out: % growth inhib.
Protocol: as §1, §2

SMILES	labeling of Triton-soluble farnesylated proteins (F1 to F3) ([1]; 250 μM, FIG. 3)	effect on low molecular weight GTP binding proteins (SMG) ([2]; 250 μM, FIG. 3)	IC (almost complete) ([1]; Cricetulus griseus, read-out: concentration of almost complete inhibition of farnesylation of F1-3) [µM]	minimal effective concentration ([1]; Cricetulus griseus, read-out: concentration of detectable inhibition of farnesylation of F1-3) [µM]	relative potency in intact cells ([1]; dose dependence, FIG. 4, compared with 27B and 37B)	incorporation of radioactivity into SMG proteins ([2]; increasing concentration, FIG. 5, lanes 2-4)	inhibition at 25 µM (MDA-7 cells) [%]	inhibition at 25 µM (CALU-3 cells) [%]
CSCC[C@H](NC(=O)CN1C(=O)C(N(C)C(=O)[C@@H](N)CS)N=C(c2ccccc2)c2ccccc21)C(=O)O (single isomer, unassigned) [27B]	markedly decreased the labeling of all three Triton-soluble farnesylated proteins (F1 to F3)	little effect on the low molecular weight GTP binding proteins						
COC(=O)[C@H](CCSC)NC(=O)CN1C(=O)C(N(C)C(=O)[C@@H](N)CS)N=C(c2ccccc2)c2ccccc21 (single isomer, unassigned) [37B]			25	10	much more potent than the parent, compound 27B	did not detectably inhibit the incorporation of radioactivity into the abundant SMG proteins	0	52
